# From patent US7906522B2, “2-aminoquinazoline derivatives” (Kyowa Hakko Kirin Co., Ltd, priority 2005, dated 2011)
# How the values were obtained:
# [1] = target: T1, Activated human p38α (Homo sapiens, UniProt Q16539); assay: p38MAP kinase inhibition test; assay type: biochemical; details: at a concentration of 1 μmol/L; substrate myelin basic protein, ATP 20 μmol/L, [γ-32P]ATP; read-out: enzyme inhibitory activity
# T1 construct: purchased Upstate Biotechnology Inc. 14-251
# In short: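 Radiometric kinase assay with myelin basic protein (20 μg/assay) as substrate, 20 μmol/L ATP plus [γ-32P]ATP, MOPS pH 7.2 with MgCl2 18.75 mmol/L. Reaction run 15 min at 30° C., stopped with phosphoric acid; 32P-MBP captured on phosphocellulose and counted by scintillation.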
# T1 sequence (Q16539 whole entry): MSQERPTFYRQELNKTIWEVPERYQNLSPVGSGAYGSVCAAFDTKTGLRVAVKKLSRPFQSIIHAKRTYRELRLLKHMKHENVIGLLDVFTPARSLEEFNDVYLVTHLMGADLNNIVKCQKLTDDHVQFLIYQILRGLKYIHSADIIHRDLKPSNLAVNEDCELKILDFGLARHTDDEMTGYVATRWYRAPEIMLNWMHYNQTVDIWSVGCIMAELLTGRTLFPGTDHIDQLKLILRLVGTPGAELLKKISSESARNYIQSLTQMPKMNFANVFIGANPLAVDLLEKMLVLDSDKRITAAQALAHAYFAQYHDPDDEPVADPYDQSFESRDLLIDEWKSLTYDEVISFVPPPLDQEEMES
SMILES,melting point [°C],inhibition at 1 µM [1] [%]
"CS(=O)(=O)N1CCC(Nc2ncc3cc(-c4ccccc4Cl)c(O)cc3n2)CC1 [Compound 156, 6-(2-Chlorophenyl)-7-hydroxy-2-[1-(methylsulfonyl)piperidin-4-ylamino]quinazoline]",268 to 271,≥ 50
"CC(=O)Nc1ccc(CO)c(-c2cc3cnc(NC(C)C)nc3cc2C)c1 [Compound 280, 6-[(5-Acetylamino-2-hydroxymethyl)phenyl]-2-isopropylamino-7-methylquinazoline]",,≥ 50
"Cc1cc2nc(NC(C)C)ncc2cc1-c1cc(NC(=O)c2ccc[nH]2)ccc1CO [Compound 281, 6-{2-Hydroxymethyl-5-[(1H-pyrrol-2-yl)carbonylamino]phenyl}-2-isopropylamino-7-methylquinazoline]",,≥ 50
"CC(C)Nc1ncc2cc(-c3cccc([N+](=O)[O-])c3)c(OCc3ccccc3)cc2n1 [Compound 282, 7-Benzyloxy-2-isopropylamino-6-(3-nitrophenyl)quinazoline]",,≥ 50
"CC(C)Nc1ncc2cc(-c3cccc(N)c3)c(O)cc2n1 [Compound 285, 6-(3-Aminophenyl)-7-hydroxy-2-(isopropylamino)quinazoline]",,≥ 50
"CC(=O)Nc1cccc(-c2cc3cnc(NC(C)C)nc3cc2O)c1 [Compound 287, 6-[3-(Acetylamino)phenyl]-7-hydroxy-2-(isopropylamino)quinazoline]",,≥ 50
"CC(=O)Nc1ccc(C)c(-c2cc3cnc(NC(C)C)nc3cc2O)c1 [Compound 289, 6-(5-Acetylamino-2-methylphenyl)-7-hydroxy-2-(isopropylamino)quinazoline]",,≥ 50
"CC(C)Nc1ncc2cc(-c3cccc(NC(=O)c4ccc[nH]4)c3)c(O)cc2n1 [Compound 292, 7-Hydroxy-2-isopropylamino-6-{3-[(1H-pyrrol-2-yl)carbonylamino]phenyl}quinazoline]",,≥ 50
"Cc1ccc(NC(=O)C2CCC2)cc1-c1cc2cnc(NC(C)C)nc2cc1O [Compound 293, 6-(5-Cyclobutylcarbonylamino-2-methylphenyl)-7-hydroxy-2-(isopropylamino)quinazoline]",,≥ 50
"CC(C)Nc1ncc2cc(-c3cccc(NC(=O)C4CCC4)c3)c(O)cc2n1 [Compound 294, 6-[3-(Cyclobutylcarbonylamino)phenyl]-7-hydroxy-2-(isopropylamino)quinazoline]",,≥ 50
"Cc1ccc(NC(=O)C2CC2)cc1-c1cc2cnc(NC(C)C)nc2cc1O [Compound 295, 6-(5-Cyclopropylcarbonylamino-2-methylphenyl)-7-hydroxy-2-(isopropylamino)quinazoline]",,≥ 50
"CC(C)Nc1ncc2cc(-c3cccc(NC(=O)C4CC4)c3)c(O)cc2n1 [Compound 296, 6-[3-(Cyclopropylcarbonylamino)phenyl]-7-hydroxy-2-(isopropylamino)quinazoline]",,≥ 50
"CCC(=O)Nc1cccc(-c2cc3cnc(NC(C)C)nc3cc2O)c1 [Compound 297, 7-Hydroxy-2-isopropylamino-6-[3-(propionylamino)phenyl]quinazoline]",,≥ 50
"CC(C)Nc1ncc2cc(-c3cccc(NC(=O)C(C)(C)C)c3)c(O)cc2n1 [Compound 298, 6-[3-(tert-Butylcarbonylamino)phenyl]-7-hydroxy-2-(isopropylamino)quinazoline]",,≥ 50
"CC(C)Nc1ncc2cc(-c3cccc(NC(=O)C4(C)CC4)c3)c(O)cc2n1 [Compound 299, 7-Hydroxy-2-isopropylamino-6-{3-[(1-methylcyclopropyl)carbonylamino]phenyl}quinazoline]",,≥ 50
"Cc1cccc(C)c1Nc1ncc2cc(-c3cccc(NC(=O)c4cccc(N(C)C)c4)c3)c(O)cc2n1 [Compound 314, 6-{3-[(3-Dimethylaminophenyl)carbonylamino]phenyl}-2-(2,6-dimethylanilino)-7-hydroxyquinazoline]",,≥ 50
"CC(C)Nc1ncc2cc(-c3cccc4ccccc34)c(O)cc2n1 [Compound 326, 7-Hydroxy-2-isopropylamino-6-(naphthalen-1-yl)quinazoline]",,≥ 50
"Cc1ccc(-n2nc(C(C)(C)C)cc2C(=O)Nc2cccc(-c3cc4cnc(NC(C)C)nc4cc3O)c2)cc1 [Compound 359, 6-{3-[5-tert-Butyl-2-(4-methylphenyl)-2H-pyrazol-3-ylcarbonylamino]phenyl}-7-hydroxy-2-(isopropylamino)quinazoline]",,≥ 50
"CC(C)Nc1ncc2cc(-c3cccc(NC(=O)c4cc(F)cc(N5CCCCC5)c4)c3)c(O)cc2n1 [Compound 370, 6-{3-[3-Fluoro-5-(piperidino)benzoylamino]phenyl}-7-hydroxy-2-(isopropylamino)quinazoline]",215 to 217,
"CC(C)Nc1ncc2cc(-c3cccc(C(=O)Nc4ccnc(N5CCCC5)c4)c3)c(O)cc2n1 [Compound 372, 7-Hydroxy-2-isopropylamino-6-{3-[2-(pyrrolidin-1-yl)pyridin-4-ylcarbamoyl]phenyl}quinazoline]",275 to 279,
"CC(C)Nc1ncc2cc(-c3cccc(NC(=O)c4ccnc(N5CCN(C)CC5)c4)c3)c(O)cc2n1 [Compound 374, 7-Hydroxy-2-isopropylamino-6-{3-[2-(4-methylpiperazin-1-yl)pyridin-4-ylcarbonylamino]phenyl}quinazoline]",178,
"CC(C)Nc1ncc2cc(-c3cccc(NC(=O)c4cccc(N5CCCC5)c4)c3)c(O)cc2n1 [Compound 376, 7-Hydroxy-2-isopropylamino-6-{3-[3-(pyrrolidin-1-yl)benzoylamino]phenyl}quinazoline]",235 to 236,
"Cc1ccc(C(N)=O)cc1-c1cc2cnc(NC(C)C)nc2cc1O [Compound 378, 6-(5-Carbamoyl-2-methylphenyl)-7-hydroxy-2-(isopropylamino)quinazoline]",235 to 236,
"CCONC(=O)c1ccc(C)c(-c2cc3cnc(NC(C)C)nc3cc2O)c1 [Compound 380, 6-(5-Ethoxycarbamoyl-2-methylphenyl)-7-hydroxy-2-(isopropylamino)quinazoline]",157,
"CCC(CC)Nc1ncc2cc(-c3cccc(NC(=O)c4ccnc(N5CCCC5)c4)c3)c(O)cc2n1 [Compound 382, 2-(3-Pentylamino)-7-hydroxy-6-{3-[2-(pyrrolidin-1-yl)pyridin-4-ylcarbonylamino]phenyl}quinazoline]",194,
"CC[C@H](C)Nc1ncc2cc(-c3cccc(NC(=O)c4ccnc(N5CCCC5)c4)c3)c(O)cc2n1 [Compound 384, (S)-2-(sec-Butylamino)-7-hydroxy-6-{3-[2-(pyrrolidin-1-yl)pyridin-4-ylcarbonylamino]phenyl}quinazoline]",165 to 168,
"CC(C)Nc1ncc2cc(-c3cccc(NC(=O)c4cccc(N5CCCCC5)c4)c3)c(O)cc2n1 [Compound 386, 7-Hydroxy-2-isopropylamino-6-{3-[3-(piperidino)benzoylamino]phenyl}quinazoline]",230,
"Cc1cc(F)ccc1-c1cc(C(=O)Nc2cccc(-c3cc4cnc(NC(C)C)nc4cc3O)c2)ccn1 [Compound 388, 6-{3-[2-(4-Fluoro-2-methylphenyl)pyridin-4-ylcarbonylamino]phenyl}-7-hydroxy-2-(isopropylamino)quinazoline]",224 to 226,
